Where two headings read alike, the source gives them in different places.
Tests used:
[1] = biological target: human TRPV1 (Homo sapiens, UniProt Q8NER1); assay: FLIPR Ca2+ assay, reduction of L-Menthol activation of TRPV1; conditions: for inhibition at 100 µM: read-out: % Reduction of L-Menthol TRPV1 Activation
[2] = biological target: human TRPA1 (Homo sapiens, UniProt O75762); assay: FLIPR Ca2+ assay, reduction of hydrogen peroxide activation of TRPA1; format: cell-based; design: expressed in transfected cells; conditions: for inhibition at 400 µM / inhibition at 100 µM: read-out: % Reduction of Hydrogen Peroxide TRPA1 Activation
Chain of human TRPA1 (O75762 whole entry): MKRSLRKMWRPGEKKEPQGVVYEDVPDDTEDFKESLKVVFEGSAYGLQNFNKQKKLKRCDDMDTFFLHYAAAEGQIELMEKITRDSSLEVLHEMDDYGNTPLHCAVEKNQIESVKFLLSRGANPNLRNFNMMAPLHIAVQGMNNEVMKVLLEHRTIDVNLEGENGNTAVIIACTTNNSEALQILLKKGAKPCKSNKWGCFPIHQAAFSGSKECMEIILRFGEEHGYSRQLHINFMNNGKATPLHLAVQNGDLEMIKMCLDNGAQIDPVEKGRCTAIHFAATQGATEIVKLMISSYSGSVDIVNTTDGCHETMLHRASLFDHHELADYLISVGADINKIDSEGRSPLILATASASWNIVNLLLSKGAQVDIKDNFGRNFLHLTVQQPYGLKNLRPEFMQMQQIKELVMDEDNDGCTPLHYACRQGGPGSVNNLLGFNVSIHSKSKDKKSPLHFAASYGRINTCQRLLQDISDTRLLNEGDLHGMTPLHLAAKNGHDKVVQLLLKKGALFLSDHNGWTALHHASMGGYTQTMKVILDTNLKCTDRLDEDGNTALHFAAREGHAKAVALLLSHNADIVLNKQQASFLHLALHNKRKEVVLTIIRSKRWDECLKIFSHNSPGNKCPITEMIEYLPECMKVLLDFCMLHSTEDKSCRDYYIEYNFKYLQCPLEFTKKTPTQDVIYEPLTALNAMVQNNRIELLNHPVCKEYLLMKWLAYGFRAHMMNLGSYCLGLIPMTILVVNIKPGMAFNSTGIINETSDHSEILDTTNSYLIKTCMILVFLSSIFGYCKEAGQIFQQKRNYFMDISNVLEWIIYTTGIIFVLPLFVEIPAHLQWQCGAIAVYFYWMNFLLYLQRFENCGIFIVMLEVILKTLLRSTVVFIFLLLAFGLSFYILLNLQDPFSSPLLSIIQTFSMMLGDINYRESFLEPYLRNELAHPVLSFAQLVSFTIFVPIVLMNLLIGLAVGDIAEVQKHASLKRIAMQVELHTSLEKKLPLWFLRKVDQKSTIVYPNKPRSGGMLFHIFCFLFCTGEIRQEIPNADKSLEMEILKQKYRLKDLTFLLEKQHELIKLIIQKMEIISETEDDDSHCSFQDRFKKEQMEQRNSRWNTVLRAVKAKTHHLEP
Protocol: After centrifugation, a pellet of cells was formed in the bottom of the tube separating them from the supernatant solution.
The pelleted cells were re-suspended in 10 ml assay buffer and 90 μl aliquots (˜50,000 cells) per well delivered to a 96-well assay plate containing 10 μl of test compounds ([…]) or buffer control and incubated at room temperature for 30 minutes.

[3] = antagonist 100 μM against 1 mM L-Menthol
[4] = 100 μM antagonist vs 500 μM hydrogen peroxide
[5] = 400 μM antagonist vs 500 μM hydrogen peroxide
[6] = antagonist 400 μM against 200 μM hydrogen peroxide
[7] = compound 100 μM against 200 μM hydrogen peroxide, Sets 1-4

Chain of human TRPV1 (Q8NER1 whole entry): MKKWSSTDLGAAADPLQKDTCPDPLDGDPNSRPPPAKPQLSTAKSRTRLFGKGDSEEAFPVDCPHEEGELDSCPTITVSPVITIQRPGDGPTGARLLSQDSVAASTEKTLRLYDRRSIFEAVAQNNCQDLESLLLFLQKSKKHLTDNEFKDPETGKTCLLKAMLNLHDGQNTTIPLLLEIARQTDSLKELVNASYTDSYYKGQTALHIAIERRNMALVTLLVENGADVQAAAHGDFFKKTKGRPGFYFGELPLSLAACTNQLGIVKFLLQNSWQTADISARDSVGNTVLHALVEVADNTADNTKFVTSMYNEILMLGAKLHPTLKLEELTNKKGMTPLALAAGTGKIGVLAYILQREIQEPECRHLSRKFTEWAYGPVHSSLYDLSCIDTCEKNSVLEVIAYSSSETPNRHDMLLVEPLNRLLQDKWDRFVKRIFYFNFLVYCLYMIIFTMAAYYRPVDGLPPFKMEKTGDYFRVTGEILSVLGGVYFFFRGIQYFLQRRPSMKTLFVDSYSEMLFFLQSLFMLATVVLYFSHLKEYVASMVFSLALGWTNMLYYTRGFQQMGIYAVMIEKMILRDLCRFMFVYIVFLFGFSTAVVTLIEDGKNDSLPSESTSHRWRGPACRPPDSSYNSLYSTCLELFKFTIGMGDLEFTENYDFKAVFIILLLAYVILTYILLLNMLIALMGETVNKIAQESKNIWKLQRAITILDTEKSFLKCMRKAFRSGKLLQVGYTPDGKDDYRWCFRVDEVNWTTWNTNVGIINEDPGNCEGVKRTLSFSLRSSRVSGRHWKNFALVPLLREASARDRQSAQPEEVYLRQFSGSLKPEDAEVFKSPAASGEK

SMILES: CC(O)c1ccccc1 (racemic) [(+−)-1-phenylethanol]
- Average Ca2+ Counts [1, 3]: 1087.7 Counts
- inhibition at 100 µM [1]: 41.6%

SMILES: CC(C)=CCCC(C)CCO (racemic) [(+−)-beta;-citronellol]
- % Reduction of L-Menthol TRPV1 Activation [1, 3]: 22.5%
- Average Ca2+ Counts [1, 3]: 1501.3 Counts

SMILES: CCCCCCCCCCO [1-decanol]
- Average Ca2+ Counts [1, 3]: 1175.7 Counts
- inhibition at 100 µM [1]: 37.5%

SMILES: COc1ccc(C)cc1C [2,4-dimethylanisole]
- Average Ca2+ Counts [1, 3]: 1255.3 Counts
- inhibition at 100 µM [1]: 33.9%

SMILES: COc1cccc(OC)c1O [2,6-dimethoxyphenol]
- Average Ca2+ Counts [1, 3]: 1365.0 Counts
- inhibition at 100 µM [1]: 28.8%

SMILES: CC(=O)c1cccn1C [2-acetyl-1-methylpyrrole]
- Average Ca2+ Counts [1, 3]: 1254.0 Counts
- inhibition at 100 µM [1]: 33.9%

SMILES: CCc1occc(=O)c1O [2-ethyl-3-hydroxy-4h-pyran-4-one]
- Average Ca2+ Counts [1, 3]: 1095.3 Counts
- inhibition at 100 µM [1]: 41.3%

SMILES: CCC(C)C1CCCCC1=O (stereo not shown) [2-sec.-butylcyclohexanone]
- Average Ca2+ Counts [1, 3]: 1352.3 Counts
- inhibition at 100 µM [1]: 29.4%

SMILES: CC(O)C(C)S (stereo not shown) [3-mercapto-2-butanol]
- Average Ca2+ Counts [1, 3]: 1008.3 Counts
- inhibition at 100 µM [1]: 45.3%

SMILES: CCOc1ccc(C=O)cc1 [4-ethoxybenzaldehyde]
- Average Ca2+ Counts [1, 3]: 1200.0 Counts
- inhibition at 100 µM [1]: 36.4%

SMILES: COc1ccc(C(C)=O)cc1 [4′-methoxyacetophenone]
- Average Ca2+ Counts [1, 3]: 1162.0 Counts
- inhibition at 100 µM [1]: 38.2%

SMILES: C=C(C)c1ccc(C)cc1 [Alpha-p-dimethylstyrene]
- Block of hydrogen peroxide activation of TRPA1 [2, 4]: BLOCK ONLY H2O2/TRPA1

SMILES: CCCCC(=O)OC1CC2CCC1(C)C2(C)C (stereo not shown) [Bornyl Valerate]
- Block of hydrogen peroxide activation of TRPA1 [2, 5]: BLOCK ONLY H2O2/TRPA1
- inhibition at 400 µM [2, 6]: 52%

SMILES: CCCC1CC(=O)C=C(C)C1 (stereo not shown) [Celery Ketone, 2-Cyclohexen-1-one, 3-methyl-5-propyl-]
- inhibition at 400 µM [2, 6]: 56%

SMILES: CC(=O)OCCC(C)CCC=C(C)C (stereo not shown) [Citronellyl acetate]
- Block of hydrogen peroxide activation of TRPA1 [2, 5]: BLOCK ONLY H2O2/TRPA1
- inhibition at 400 µM [2, 6]: 70%

SMILES: C[C@H]1CC[C@]2(O1)C(C)(C)CCC[C@]2(C)O [Hydroxydihydrotheaspirane, 1-Oxaspiro[4.5]decan-6-ol, 2,6,10,10-tetramethyl-, (2S,5S,6S)-6-]
- % Reduction of Hydrogen Peroxide TRPA1 Activation [2, 6]: 57%

SMILES: COC(=O)c1ccccc1OC [Methyl 2-methoxy-benzoate]
- Block of hydrogen peroxide activation of TRPA1 [2, 5]: BLOCK ONLY H2O2/TRPA1
- inhibition at 400 µM [2, 6]: 48%

SMILES: COC(=O)CCCc1ccccc1 [Methyl-4-phenyl butyrate]
- Block of hydrogen peroxide activation of TRPA1 [2, 5]: BLOCK ONLY H2O2/TRPA1
- % Reduction of Hydrogen Peroxide TRPA1 Activation [2, 6]: 60%

SMILES: CC(O)C(=O)NCCO (stereo not shown) [N-(2-Hydroxyethyl) lactamide]
- Block of hydrogen peroxide activation of TRPA1 [2, 5]: BLOCK ONLY H2O2/TRPA1
- inhibition at 400 µM [2, 6]: 65%

SMILES: CCCCCCC1CCCC(=O)O1 (stereo not shown) [Undecanoic-δ-Lactone]
- % Reduction of Hydrogen Peroxide TRPA1 Activation [2]: −42%

SMILES: COc1cc(C(=O)O)ccc1O [Vanillic Acid]
- Block of hydrogen peroxide activation of TRPA1 [2, 4]: BLOCK ONLY H2O2/TRPA1
- inhibition at 100 µM ([2]; antagonist 100 μM against 200 μM hydrogen peroxide): 19%

SMILES: CC1=CC(O)CC(C)C2CC(=C(C)C)CC12 (stereo not shown) [Vetiverol, 6-Azulenol, 1,2,3,3a,4,5,6,8a-octahydro-4,8-dimethyl-2-(1-methylethylidene)-]
- inhibition at 400 µM [2, 6]: -34%

SMILES: C=C(C)OC(C)=O [acetic acid isopropenyl ester]
- Block of hydrogen peroxide activation of TRPA1 [2, 4]: BLOCK ONLY H2O2/TRPA1
- Average Ca++ Counts [2, 7]: 2860.5 Counts
- inhibition at 100 µM [2, 7]: 59.4%

SMILES: CC(=O)C(C)O (stereo not shown) [acetoin]
- Block of hydrogen peroxide activation of TRPA1 [2, 4]: BLOCK ONLY H2O2/TRPA1
- Average Ca++ Counts [2, 7]: 4341.5 Counts
- inhibition at 100 µM [2, 7]: 59%

SMILES: CC(=O)OCC(C)(C)Cc1ccccc1 [alpha,alpha-dimethylhydrocinnamyl acetate]
- Average Ca++ Counts [2, 7]: 3367.0 Counts
- inhibition at 100 µM [2, 7]: 52.2%

SMILES: C=C(C)c1ccc(C)cc1 [alpha,p-dimethylstyrene]
- % Reduction of Hydrogen Peroxide TRPA1 Activation [2, 7]: 57.2%
- Average Ca++ Counts [2, 7]: 3735.5 Counts

SMILES: CCCCCO [amyl alcohol]
- Block of hydrogen peroxide activation of TRPA1 [2, 4]: BLOCK ONLY H2O2/TRPA1
- Average Ca++ Counts [2, 7]: 3149.0 Counts
- inhibition at 100 µM [2, 7]: 55.3%
